Read-outs that look alike come from different tables or passages of the source.
What was measured:
HCT-15 = test: NCI-60 SRB screen, colon cancer; format: cell-based, human; conditions: Homo sapiens
SK-MEL-5 = test: NCI-60 SRB screen, melanoma; format: cell-based, human; conditions: Homo sapiens
MDA-MB-435 = test: NCI-60 SRB screen, melanoma; format: cell-based, human; conditions: Homo sapiens
OVCAR-5 = test: NCI-60 SRB screen, ovarian cancer; format: cell-based, human; conditions: Homo sapiens
COLO 205 = test: NCI-60 SRB screen, colon cancer; format: cell-based, human; conditions: Homo sapiens
T-47D = test: NCI-60 SRB screen, breast cancer; format: cell-based, human; conditions: Homo sapiens, T47D, 48 h
CCRF-CEM = test: NCI-60 SRB screen, leukemia; format: cell-based; conditions: Homo sapiens, 48 h
LOX IMVI = test: NCI-60 SRB screen, melanoma; format: cell-based, human; conditions: Homo sapiens, 48 h
786-0 = test: NCI-60 SRB screen, renal cancer; format: cell-based, human; conditions: Homo sapiens
[1] = test system: MDA-MB-231 human breast cancer cells; test: Alamar Blue cell viability (antiproliferative) assay; format: cell-based
MOLT-4 = test: NCI-60 SRB screen, leukemia; format: cell-based, human; conditions: Homo sapiens
MALME-3M = test: NCI-60 SRB screen, melanoma; format: cell-based, human; conditions: Homo sapiens, 48 h
IGROV1 = test: NCI-60 SRB screen, ovarian cancer; format: cell-based, human; conditions: Homo sapiens
U251 = test: NCI-60 SRB screen, CNS cancer; format: cell-based, human; conditions: Homo sapiens
MDA-MB-231/ATCC = test: NCI-60 SRB screen, breast cancer; format: cell-based, human; conditions: Homo sapiens; for IC50: read-out: Antiproliferative Activity IC50
HCT-2998 = test: NCI-60 SRB screen, colon cancer; format: cell-based, human; conditions: Homo sapiens, 48 h
UACC-62 = test: NCI-60 SRB screen, melanoma; format: cell-based, human; conditions: Homo sapiens
PC-3 = test: NCI-60 SRB screen, prostate cancer; format: cell-based, human; conditions: Homo sapiens
A549/ATCC = test: NCI-60 SRB screen, non-small cell lung cancer; format: cell-based, human; conditions: Homo sapiens
NCI-H226 = test: NCI-60 SRB screen, non-small cell lung cancer; format: cell-based; conditions: Homo sapiens
NCI-H23 = test: NCI-60 SRB screen, non-small cell lung cancer; format: cell-based, human; conditions: Homo sapiens
SNB-19 = test: NCI-60 SRB screen, CNS cancer; format: cell-based, human; conditions: Homo sapiens
HOP-92 = test: NCI-60 SRB screen, non-small cell lung cancer; format: cell-based, human; conditions: Homo sapiens
TK-10 = test: NCI-60 SRB screen, renal cancer; format: cell-based, human; conditions: Homo sapiens
CAKI-1 = test: NCI-60 SRB screen, renal cancer; format: cell-based, human; conditions: Homo sapiens
A498 = test: NCI-60 SRB screen, renal cancer; format: cell-based, human; conditions: Homo sapiens
OVCAR-3 = test: NCI-60 SRB screen, ovarian cancer; format: cell-based, human; conditions: Homo sapiens
NCI/ADR-RES = test: NCI-60 SRB screen, ovarian cancer; format: cell-based, human; conditions: Homo sapiens, 48 h
NCI-H332M = test: NCI-60 SRB screen, non-small cell lung cancer; format: cell-based; conditions: Homo sapiens, 48 h
SW-620 = test: NCI-60 SRB screen, colon cancer; format: cell-based, human; conditions: Homo sapiens
KM12 = test: NCI-60 SRB screen, colon cancer; format: cell-based, human; conditions: Homo sapiens
MCF-7 = test: cells; conditions: Homo sapiens, MCF7, 48 h
[2] = HCT-15, five dose 0.01–100 µM, 48 h, read-out: GI50
[3] = SK-MEL-5, five dose 0.01–100 µM, 48 h, read-out: GI50
[4] = MDA-MB-435, five dose 0.01–100 µM, 48 h, read-out: GI50
[5] = OVCAR-5, five dose 0.01–100 µM, 48 h, read-out: GI50
[6] = COLO 205, five dose 0.01–100 µM, 48 h, read-out: GI50
[7] = T-47D, five dose 0.01–100 µM, read-out: GI50
[8] = five dose 0.01–100 µM, read-out: GI50
[9] = 786-0, five dose 0.01–100 µM, 48 h, read-out: GI50
[10] = MOLT-4, five dose 0.01–100 µM, 48 h, read-out: GI50
[11] = MALME-3M, five dose 0.01–100 µM, read-out: GI50
[12] = IGROV-1, IGROV1, five dose 0.01–100 µM, 48 h, read-out: GI50
[13] = U-251, U251, five dose 0.01–100 µM, 48 h, read-out: GI50
[14] = MDA-MB-231/ATCC, five dose 0.01–100 µM, 48 h, read-out: GI50
[15] = HCT-2998, five dose 0.01–100 µM, read-out: GI50
[16] = UACC-62, five dose 0.01–100 µM, 48 h, read-out: GI50
[17] = PC-3, five dose 0.01–100 µM, 48 h, read-out: GI50
[18] = A549/ATCC, five dose 0.01–100 µM, 48 h, read-out: GI50
[19] = NCI-H226, five dose 0.01–100 µM, 48 h, read-out: GI50
[20] = NCI-H23, five dose 0.01–100 µM, 48 h, read-out: GI50
[21] = SNB-19, five dose 0.01–100 µM, 48 h, read-out: GI50
[22] = HOP-92, five dose 0.01–100 µM, 48 h, read-out: GI50
[23] = TK-10, five dose 0.01–100 µM, 48 h, read-out: GI50
[24] = CAKI-1, five dose 0.01–100 µM, 48 h, read-out: GI50
[25] = A498, five dose 0.01–100 µM, 48 h, read-out: GI50
[26] = OVCAR-3, five dose 0.01–100 µM, 48 h, read-out: GI50
[27] = SW-620, five dose 0.01–100 µM, 48 h, read-out: GI50
[28] = KM12, five dose 0.01–100 µM, 48 h, read-out: GI50

`C=CCC1C(=O)N(c2cc(OC)c(OC)c(OC)c2)C1c1ccc(OC)c(O)c1` (centres unmarked) [10p, 4-(3-Hydroxy-4-methoxyphenyl)-1-(3,4,5-trimethoxyphenyl)-3-allylazetidin-2-one] gave a GI50 (HCT-15; [2]) of 36.7 nM, a GI50 (SK-MEL-5; [3]) of 24.9 nM and a GI50 (MDA-MB-435; [4]) of 20.5 nM. The GI50 (OVCAR-5; [5]) was 61.8 nM, the GI50 (COLO 205; [6]) was 563 nM and the GI50 (T-47D; [7]) was 63500 nM. It also gave a GI50 (CCRF-CEM; [8]) of 36.1 nM, a GI50 (LOX IMVI; [8]) of 33.9 nM and a GI50 (786-0; [9]) of 25.5 nM. It also gave an IC50 ([1]; read-out: IC50) of 27 nM, a GI50 (MOLT-4; [10]) of 40.8 nM and a GI50 (MALME-3M; [11]) of 30.6 nM. It also gave a GI50 (IGROV1; [12]) of 44.8 nM, a GI50 (U251; [13]) of 31.7 nM and a GI50 (MDA-MB-231/ATCC; [14]) of 24 nM. The IC50 (MDA-MB-231/ATCC; MDA-MB-231, obtained from NCI, five concentrations 0.01–100 μM, 48 h) was 27.4 nM, the GI50 (HCT-2998; [15]) was 29.9 nM and the GI50 (UACC-62; [16]) was 32 nM. For the same compound, the GI50 (PC-3; [17]) was 40.3 nM, the GI50 (A549/ATCC; [18]) was 37.3 nM and the GI50 (NCI-H226; [19]) was 56 nM. For the same compound, the GI50 (NCI-H23; [20]) was 30.7 nM, the GI50 (SNB-19; [21]) was 58.9 nM and the GI50 (HOP-92; [22]) was 23.8 nM. The GI50 (TK-10; [23]) was 80.2 nM, the GI50 (CAKI-1; [24]) was 44 nM and the GI50 (A498; [25]) was 17.5 nM. For the same compound, the GI50 (OVCAR-3; [26]) was 23.3 nM, the GI50 (NCI/ADR-RES; [8]) was 20.6 nM and the GI50 (NCI-H332M; [8]) was 51.2 nM. It also gave a GI50 (SW-620; [27]) of 42.2 nM, a GI50 (KM12; [28]) of 22.4 nM and a GI50 (MCF-7) of 35.3 nM.

`C=C(C)C1C(=O)N(c2cc(OC)c(OC)c(OC)c2)C1c1ccc(OC)c(OP(=O)(O)O)c1` (centres unmarked) [15a, 2-Methoxy-5-(4-oxo-3-(prop-1-en-2-yl)-1-(3,4,5-trimethoxyphenyl)azetidin-2-yl)-phenyl dihydrogen phosphate] showed a GI50 (HCT-15; [2]) of 70.7 nM, a GI50 (SK-MEL-5; [3]) of 40.6 nM and a GI50 (MDA-MB-435; [4]) of 25.9 nM. For the same compound, the GI50 (OVCAR-5; [5]) was 535 nM, the GI50 (COLO 205; [6]) was 312 nM and the GI50 (T-47D; [7]) was greater than 100000 nM. The GI50 (CCRF-CEM; [8]) was 55.7 nM, the GI50 (LOX IMVI; [8]) was 42.6 nM and the GI50 (786-0; [9]) was 390 nM. It also gave an IC50 ([1]; 72 h, eight concentrations 0.001-50 μM, mean ± SEM, read-out: Antiproliferative Activity IC50) of 32 ± 5 nM, a GI50 (MOLT-4; [10]) of 85.2 nM and a GI50 (MALME-3M; [11]) of 30100 nM. For the same compound, the GI50 (IGROV1; [12]) was 62.8 nM, the GI50 (U251; [13]) was 39.5 nM and the GI50 (MDA-MB-231/ATCC; [14]) was 53.4 nM. It also gave a GI50 (HCT-2998; [15]) of 238 nM, a GI50 (UACC-62; [16]) of 55.5 nM and a GI50 (PC-3; [17]) of 49.4 nM. The GI50 (A549/ATCC; [18]) was 59.6 nM, the GI50 (NCI-H226; [19]) was greater than 100000 nM and the GI50 (NCI-H23; [20]) was 90.2 nM. It also gave a GI50 (SNB-19; [21]) of 429 nM, a GI50 (HOP-92; [22]) of 315 nM and a GI50 (TK-10; [23]) of 43100 nM. For the same compound, the GI50 (CAKI-1; [24]) was 80.5 nM, the GI50 (A498; [25]) was 32.4 nM and the GI50 (OVCAR-3; [26]) was 62.4 nM. It also gave a GI50 (NCI/ADR-RES; [8]) of 36.5 nM, a GI50 (NCI-H332M; […], five dose 0.01–100 µM, read-out: GI50) of 82 nM and a GI50 (SW-620; [27]) of 80.7 nM. The GI50 (KM12; [28]) was 38.1 nM and the GI50 (MCF-7) was 51.3 nM.

For `C=CC=CC1C(=O)N(c2cc(OC)c(OC)c(OC)c2)C1c1ccc(OC)cc1` (centres unmarked) [11h, 3-(Buta-1,3-dienyl)-4-(4-methoxyphenyl)-1-(3,4,5-trimethoxyphenyl)azetidin-2-one], the GI50 (HCT-15; HCT-15, 48 h) was 40.5 nM, the GI50 (SK-MEL-5; SK-MEL-5, 48 h) was 26 nM and the GI50 (MDA-MB-435; MDA-MB-435, 48 h) was 19.1 nM. For the same compound, the GI50 (OVCAR-5; OVCAR-5, 48 h) was 94.8 nM, the GI50 (COLO 205; COLO 205, 48 h) was 26.5 nM and the GI50 (T-47D) was 56200 nM. It also gave a GI50 (CCRF-CEM) of 37.8 nM, a GI50 (LOX IMVI) of 32.7 nM and a GI50 (786-0; 786-0, 48 h) of 23.1 nM. For the same compound, the IC50 ([1]; read-out: IC50) was 31 nM, the GI50 (MOLT-4; MOLT-4, 48 h) was 36.9 nM and the GI50 (MALME-3M; Malme-3M) was greater than 100000 nM. The GI50 (IGROV1; IGROV-1, 48 h) was 50.7 nM, the GI50 (U251; U-251, 48 h) was 32.2 nM and the GI50 (MDA-MB-231/ATCC; MDA-MB-231, 48 h) was 29.6 nM. The IC50 (MDA-MB-231/ATCC; MDA-MB-231, 48 h) was 31.1 nM, the GI50 (HCT-2998) was 30 nM and the GI50 (UACC-62; UACC-62, 48 h) was 26.7 nM. For the same compound, the GI50 (PC-3; PC-3, 48 h) was 40.4 nM, the GI50 (A549/ATCC; A549, 48 h) was 36.4 nM and the GI50 (NCI-H226; NCI-H226, 48 h) was 76.8 nM. For the same compound, the GI50 (NCI-H23; NCI-H23, 48 h) was 32.1 nM, the GI50 (SNB-19; SNB-19, 48 h) was 65.4 nM and the GI50 (HOP-92; HOP-92, 48 h) was 24.4 nM. It also gave a GI50 (TK-10; TK-10, 48 h) of 61.7 nM, a GI50 (CAKI-1; CAKI-1, 48 h) of 58.9 nM and a GI50 (A498; A498, 48 h) of 18.3 nM. The GI50 (OVCAR-3; OVCAR-3, 48 h) was 25.2 nM, the GI50 (NCI/ADR-RES) was 17.3 nM and the GI50 (NCI-H332M) was 62.6 nM. It also gave a GI50 (SW-620; SW-620, 48 h) of 43.8 nM, a GI50 (KM12; KM12, 48 h) of 30.4 nM and a GI50 (MCF-7) of 33.5 nM.

Reference: paper PMC10385824, “Antiproliferative and Tubulin-Destabilising Effects of 3-(Prop-1-en-2-yl)azetidin-2-Ones and Related Compounds in MCF-7 and MDA-MB-231 Breast Cancer Cells” (Pharmaceuticals, 2023)
